Active and inactive are the calls of the source. No cut-off for these calls is given here.
System: SW-620
Experiment: Antiproliferative activity against human SW620 cells assessed as reduction in cell viability at 20 uM measured for 72 hrs by MTT assay
Assay type: functional, cell-based
Conditions: not given

SMILES | Activity
COc1ccc(/C=C/c2cc(-c3ccccc3O)n(-c3ccccc3)n2)cc1 | Active
COc1ccc(/C=C/c2cc(-c3cc(Cl)ccc3O)n(-c3ccccc3)n2)cc1 | Active
COc1cccc(/C=C/c2cc(-c3cc(Cl)ccc3O)n(-c3ccccc3)n2)c1 | Active
Oc1ccccc1-c1cc(/C=C/c2cccs2)nn1-c1ccccc1 | Active

System: A549
Experiment: Antiproliferative activity against human A549 cells assessed as reduction in cell viability at 20 uM measured for 72 hrs by MTT assay
Assay type: functional, cell-based
Conditions: not given

SMILES | Activity
COc1ccc(/C=C/c2cc(-c3ccccc3O)n(-c3ccccc3)n2)cc1 | Active
COc1ccc(/C=C/c2cc(-c3cc(Cl)ccc3O)n(-c3ccccc3)n2)cc1 | Active
COc1cccc(/C=C/c2cc(-c3cc(Cl)ccc3O)n(-c3ccccc3)n2)c1 | Active
Oc1ccccc1-c1cc(/C=C/c2cccs2)nn1-c1ccccc1 | Active

System: EJ-28
Experiment: Antiproliferative activity against human EJ-28 cells assessed as reduction in cell viability at 20 uM measured for 72 hrs by MTT assay
Assay type: functional, cell-based
Conditions: not given

SMILES | Activity
COc1ccc(/C=C/c2cc(-c3ccccc3O)n(-c3ccccc3)n2)cc1 | Active
COc1ccc(/C=C/c2cc(-c3cc(Cl)ccc3O)n(-c3ccccc3)n2)cc1 | Active
COc1cccc(/C=C/c2cc(-c3cc(Cl)ccc3O)n(-c3ccccc3)n2)c1 | Active
Oc1ccccc1-c1cc(/C=C/c2cccs2)nn1-c1ccccc1 | Active

System: HT-1080
Experiment: Antiproliferative activity against human HT-1080 cells assessed as reduction in cell viability at 20 uM measured for 72 hrs by MTT assay
Assay type: functional, cell-based
Conditions: not given

SMILES | Activity
COc1ccc(/C=C/c2cc(-c3ccccc3O)n(-c3ccccc3)n2)cc1 | Active
COc1ccc(/C=C/c2cc(-c3cc(Cl)ccc3O)n(-c3ccccc3)n2)cc1 | Active
COc1cccc(/C=C/c2cc(-c3cc(Cl)ccc3O)n(-c3ccccc3)n2)c1 | Active
Oc1ccccc1-c1cc(/C=C/c2cccs2)nn1-c1ccccc1 | Active

System: MCF7
Experiment: Antiproliferative activity against human MCF7 cells assessed as reduction in cell viability at 20 uM measured for 72 hrs by MTT assay
Assay type: functional, cell-based
Conditions: not given

SMILES | Activity
COc1ccc(/C=C/c2cc(-c3ccccc3O)n(-c3ccccc3)n2)cc1 | Active
COc1ccc(/C=C/c2cc(-c3cc(Cl)ccc3O)n(-c3ccccc3)n2)cc1 | Active
COc1cccc(/C=C/c2cc(-c3cc(Cl)ccc3O)n(-c3ccccc3)n2)c1 | Active
Oc1ccccc1-c1cc(/C=C/c2cccs2)nn1-c1ccccc1 | Active

System: SW-620
Experiment: Cytotoxicity against human SW620 cells assessed inhibition of cell growth incubated for 72 hrs by MTT assay
Assay type: functional, cell-based
Conditions: SW-620, 72 h

SMILES | IC50 [µM]
COc1ccc(/C=C/c2cc(-c3ccccc3O)n(-c3ccccc3)n2)cc1 | 7.9
COc1ccc(/C=C/c2cc(-c3cc(Cl)ccc3O)n(-c3ccccc3)n2)cc1 | 19.8
COc1cccc(/C=C/c2cc(-c3cc(Cl)ccc3O)n(-c3ccccc3)n2)c1 | 19.5
Oc1ccccc1-c1cc(/C=C/c2cccs2)nn1-c1ccccc1 | 11.9

System: A549
Experiment: Cytotoxicity against human A549 cells assessed inhibition of cell growth incubated for 72 hrs by MTT assay
Assay type: functional, cell-based
Conditions: A549, 72 h

SMILES | IC50 [µM]
COc1ccc(/C=C/c2cc(-c3ccccc3O)n(-c3ccccc3)n2)cc1 | 20.8
COc1ccc(/C=C/c2cc(-c3cc(Cl)ccc3O)n(-c3ccccc3)n2)cc1 | 20.9
COc1cccc(/C=C/c2cc(-c3cc(Cl)ccc3O)n(-c3ccccc3)n2)c1 | 16.5
Oc1ccccc1-c1cc(/C=C/c2cccs2)nn1-c1ccccc1 | 18.5

System: EJ-28
Experiment: Cytotoxicity against human EJ-28 cells assessed inhibition of cell growth incubated for 72 hrs by MTT assay
Assay type: functional, cell-based
Conditions: EJ-28, 72 h

SMILES | IC50 [µM]
COc1ccc(/C=C/c2cc(-c3ccccc3O)n(-c3ccccc3)n2)cc1 | 12.9
COc1ccc(/C=C/c2cc(-c3cc(Cl)ccc3O)n(-c3ccccc3)n2)cc1 | 14.3
COc1cccc(/C=C/c2cc(-c3cc(Cl)ccc3O)n(-c3ccccc3)n2)c1 | 8.6
Oc1ccccc1-c1cc(/C=C/c2cccs2)nn1-c1ccccc1 | 14.3

System: HT-1080
Experiment: Cytotoxicity against human HT-1080 cells assessed inhibition of cell growth incubated for 72 hrs by MTT assay
Assay type: functional, cell-based
Conditions: HT-1080, 72 h

SMILES | IC50 [µM]
COc1ccc(/C=C/c2cc(-c3ccccc3O)n(-c3ccccc3)n2)cc1 | 14.7
COc1ccc(/C=C/c2cc(-c3cc(Cl)ccc3O)n(-c3ccccc3)n2)cc1 | 17.2
COc1cccc(/C=C/c2cc(-c3cc(Cl)ccc3O)n(-c3ccccc3)n2)c1 | 17.4
Oc1ccccc1-c1cc(/C=C/c2cccs2)nn1-c1ccccc1 | 12.8

System: MCF7
Experiment: Cytotoxicity against human MCF7 cells assessed inhibition of cell growth incubated for 72 hrs by MTT assay
Assay type: functional, cell-based
Conditions: MCF7, 72 h

SMILES | IC50 [µM]
COc1ccc(/C=C/c2cc(-c3ccccc3O)n(-c3ccccc3)n2)cc1 | 13
COc1ccc(/C=C/c2cc(-c3cc(Cl)ccc3O)n(-c3ccccc3)n2)cc1 | 12.1
COc1cccc(/C=C/c2cc(-c3cc(Cl)ccc3O)n(-c3ccccc3)n2)c1 | 10.9
Oc1ccccc1-c1cc(/C=C/c2cccs2)nn1-c1ccccc1 | 9.1

System: not listed separately
Experiment: Cytotoxicity against human NHDF cells assessed inhibition of cell growth incubated for 72 hrs by MTT assay
Assay type: toxicity, cell-based
Conditions: not given

SMILES | IC50 at 72 h [µM]
COc1ccc(/C=C/c2cc(-c3ccccc3O)n(-c3ccccc3)n2)cc1 | > 50
COc1ccc(/C=C/c2cc(-c3cc(Cl)ccc3O)n(-c3ccccc3)n2)cc1 | 47
COc1cccc(/C=C/c2cc(-c3cc(Cl)ccc3O)n(-c3ccccc3)n2)c1 | 45.6
Oc1ccccc1-c1cc(/C=C/c2cccs2)nn1-c1ccccc1 | 19.2

System: not listed separately
Experiment: Selectivity index, ratio of IC50 for cytotoxicity against human NHDF cells to IC50 for cytotoxicity against human SW620 cells
Conditions: not given

SMILES | Ratio IC50
COc1ccc(/C=C/c2cc(-c3ccccc3O)n(-c3ccccc3)n2)cc1 | >2.4
COc1ccc(/C=C/c2cc(-c3cc(Cl)ccc3O)n(-c3ccccc3)n2)cc1 | 2.2
COc1cccc(/C=C/c2cc(-c3cc(Cl)ccc3O)n(-c3ccccc3)n2)c1 | 2.3
Oc1ccccc1-c1cc(/C=C/c2cccs2)nn1-c1ccccc1 | 1

System: not listed separately
Experiment: Selectivity index, ratio of IC50 for cytotoxicity against human NHDF cells to IC50 for cytotoxicity against human A549 cells
Assay type: toxicity, cell-based
Conditions: NHDF cells and A549 cells, read-out: Ratio IC50

SMILES | selectivity ratio
COc1ccc(/C=C/c2cc(-c3ccccc3O)n(-c3ccccc3)n2)cc1 | > 2.4
COc1ccc(/C=C/c2cc(-c3cc(Cl)ccc3O)n(-c3ccccc3)n2)cc1 | 2.2
COc1cccc(/C=C/c2cc(-c3cc(Cl)ccc3O)n(-c3ccccc3)n2)c1 | 2.3
Oc1ccccc1-c1cc(/C=C/c2cccs2)nn1-c1ccccc1 | 1

System: not listed separately
Experiment: Selectivity index, ratio of IC50 for cytotoxicity against human NHDF cells to IC50 for cytotoxicity against human EJ-28 cells
Conditions: not given

SMILES | Ratio IC50
COc1ccc(/C=C/c2cc(-c3ccccc3O)n(-c3ccccc3)n2)cc1 | >2.4
COc1ccc(/C=C/c2cc(-c3cc(Cl)ccc3O)n(-c3ccccc3)n2)cc1 | 2.2
COc1cccc(/C=C/c2cc(-c3cc(Cl)ccc3O)n(-c3ccccc3)n2)c1 | 2.3
Oc1ccccc1-c1cc(/C=C/c2cccs2)nn1-c1ccccc1 | 1

System: not listed separately
Experiment: Selectivity index, ratio of IC50 for cytotoxicity against human NHDF cells to IC50 for cytotoxicity against human HT-1080 cells
Conditions: not given

SMILES | Ratio IC50
COc1ccc(/C=C/c2cc(-c3ccccc3O)n(-c3ccccc3)n2)cc1 | >2.4
COc1ccc(/C=C/c2cc(-c3cc(Cl)ccc3O)n(-c3ccccc3)n2)cc1 | 2.2
COc1cccc(/C=C/c2cc(-c3cc(Cl)ccc3O)n(-c3ccccc3)n2)c1 | 2.3
Oc1ccccc1-c1cc(/C=C/c2cccs2)nn1-c1ccccc1 | 1

System: not listed separately
Experiment: Selectivity index, ratio of IC50 for cytotoxicity against human NHDF cells to IC50 for cytotoxicity against human MCF7 cells
Assay type: toxicity, cell-based
Conditions: NHDF cells and MCF7 cells, read-out: Ratio IC50

SMILES | selectivity ratio
COc1ccc(/C=C/c2cc(-c3ccccc3O)n(-c3ccccc3)n2)cc1 | > 2.4
COc1ccc(/C=C/c2cc(-c3cc(Cl)ccc3O)n(-c3ccccc3)n2)cc1 | 2.2
COc1cccc(/C=C/c2cc(-c3cc(Cl)ccc3O)n(-c3ccccc3)n2)c1 | 2.3
Oc1ccccc1-c1cc(/C=C/c2cccs2)nn1-c1ccccc1 | 1
